Source: patent US20090181929A1, “ORGANIC COMPOUNDS” (priority 2006, published 2009)

target: T1, CETP (Homo sapiens, UniProt P11597); assay: in vitro CETP activity in human plasma (BODIPY-CE donor microemulsion, fluorescence); assay type: biochemical
T1 construct: Human plasma (50 μL), assay buffer (35 μL) and test compound; tissue New Drug Development Research Center, Inc; host or cells: human EDTA plasma from healthy men
T1 sequence (P11597 18-493): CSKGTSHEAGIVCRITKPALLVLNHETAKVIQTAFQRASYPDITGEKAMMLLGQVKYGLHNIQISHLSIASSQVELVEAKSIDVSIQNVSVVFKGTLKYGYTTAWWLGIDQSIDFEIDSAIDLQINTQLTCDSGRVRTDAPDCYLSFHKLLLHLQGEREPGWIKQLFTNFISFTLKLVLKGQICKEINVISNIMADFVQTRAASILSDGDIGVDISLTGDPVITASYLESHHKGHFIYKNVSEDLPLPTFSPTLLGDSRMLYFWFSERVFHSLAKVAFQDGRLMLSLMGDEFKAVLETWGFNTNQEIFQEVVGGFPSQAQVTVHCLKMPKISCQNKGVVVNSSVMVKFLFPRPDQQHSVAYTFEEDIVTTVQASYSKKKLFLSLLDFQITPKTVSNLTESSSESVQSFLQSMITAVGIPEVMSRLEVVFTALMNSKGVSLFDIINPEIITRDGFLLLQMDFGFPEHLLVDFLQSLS
Description: For purposes of detecting the in vitro and in vivo CETP activity, human pro-apolipoprotein AI (pro-apoAI) and donor microemulsion are prepared as follows. The cDNA of human pro-apoAI (NCBI accession number: NM_000039) is cloned from human liver Quick-Clone™ cDNA (Clontech, CA) and inserted to a pET28a vector (Novagen, Germany) for bacterial expression. Expressed protein as a fusion protein with 6×His-tag at N-terminus in BL-21 Gold (DE3) (Strategene, CA) is purified using HiTrap Chelating (GE Healthcare, CT). Pro-apoAI containing microemulsion as a donor particle is prepared following previous reports (J. Biol. Chem., 280:14918-22). Glyceryl trioleate (62.5 ng, Sigma, Mo.), 3-sn-phosphatidylcholine (583 ng, Wako Pure Chemical Industries, Japan), and cholesteryl BODIPY® FL C12 (250 ng, Invitrogen, CA) are dissolved in 1 mL of chloroform. The solution is evaporated, then residual solvent is removed in vacuum for more than 1 hr. The dried lipid mixture is dissolved in 500 μL of the assay buffer (50 mM Tris-HCl (pH7.4) containing 150 mM NaCl and 2 mM EDTA) and sonicated at 50° C. with a microtip (MICROSON™ ULTRASONIC CELL DISRUPTOR, Misonix, Farmingdale, N.Y.) at output power 006 for 2 min. After sonication, the solution is cooled to 40° C., added to 100 μg of human pro-apoAI, and sonicated at output power 004 for 5 min at 40° C. The solution, BODIPY-CE microemulsion as a donor molecule is stored at 4° C. after filtration through a 0.45 μm PVDF filter.
For purposes of detecting in vitro CETP activity, human EDTA plasma samples from healthy men are purchased from New Drug Development Research Center, Inc. Donor solution is prepared by a dilution of donor microemulsion with assay buffer. Human plasma (50 μL), assay buffer (35 μL) and test compound dissolved in dimethylsulfoxide (1 μL) are added to each well of 96 well half area black flat bottom plate. The reaction is started by the addition of donor solution (14 μL) into each well. Fluorescence intensities are measured every 30 min at 37° C. with excitation wave length of 485 nm and emission wavelength of 535 nm. The CETP activity (Fl/min) is defined as the changes of fluorescence intensity from 30 to 90 min. The IC50 value is obtained by the logistic equation (Y=Bottom+(Top-Bottom)/(1+(x/IC50)̂Hill slope) using Origin software, version 7.5 SR3.

| SMILES | IC50 [nM] |
| --- | --- |
| CCN(CC1CCCC1)c1ncc(N(C)C(C)=O)cc1CN(Cc1cc(C(F)(F)F)cc(C(F)(F)F)c1)c1nnn(C)n1 [Compound 2, N-[5-{[(3,5-Bis-trifluoromethyl-benzyl)-(2-methyl-2H-tetrazol-5-yl)-amino]-methyl}-6-(cyclopentylmethyl-ethyl-amino)-pyridin-3-yl]-N-methyl-acetamide] | 370 |
| CCN(CC1CCCC1)c1nc(C)c(Br)cc1CN(Cc1cc(C(F)(F)F)cc(C(F)(F)F)c1)c1nnn(C)n1 [Compound 4, (3-{[(3,5-Bis-trifluoromethyl-benzyl)-(2-methyl-2H-tetrazol-5-yl)-amino]-methyl}-5-bromo-6-methyl-pyridin-2-yl)-cyclopentylmethyl-ethyl-amine] | 110 |
| CCN(CC1CCCC1)c1ncc(N2CCC2)cc1CN(Cc1cc(C(F)(F)F)cc(C(F)(F)F)c1)c1nnn(C)n1 [Compound 1, (5-Azetidin-1-yl-3-{[(3,5-bis-trifluoromethyl-benzyl)-(2-methyl-2H-tetrazol-5-yl)-amino]-methyl}-pyridin-2-yl)-cyclopentylmethyl-ethyl-amine] | 260 |
| CCN(CC1CCCC1)c1ncc([N+](=O)[O-])cc1CN(Cc1cc(C(F)(F)F)cc(C(F)(F)F)c1)c1nnn(C)n1 [Compound 8, (3-{[(3,5-Bis-trifluoromethyl-benzyl)-(2-methyl-2H-tetrazol-5-yl)-amino]-methyl}-5-nitro-pyridin-2-yl)-cyclopentylmethyl-ethyl-amine] | 630 |
| CCCCN(C)c1cnc(N(CC)CC2CCCC2)c(CN(Cc2cc(C(F)(F)F)cc(C(F)(F)F)c2)c2nnn(C)n2)c1 [Compound 7, 3-{[(3,5-Bis-trifluoromethyl-benzyl)-(2-methyl-2H-tetrazol-5-yl)-amino]-methyl}-N*5*-butyl-N*2*-cyclopentylmethyl-N*2*-ethyl-N*5*-methyl-pyridine-2,5-diamine] | 720 |

Continued, values first:

| IC50 [nM] | SMILES |
| --- | --- |
| 140 | CCN(CC1CCCC1)c1ncc(SC)cc1CN(Cc1cc(C(F)(F)F)cc(C(F)(F)F)c1)c1nnn(C)n1 [Compound 3, (3-{[(3,5-Bis-trifluoromethyl-benzyl)-(2-methyl-2H-tetrazol-5-yl)-amino]-methyl}-5-methylsulfanyl-pyridin-2-yl)-cyclopentylmethyl-ethyl-amine] |
| 230 | CCN(CC1CCCC1)c1ncc(I)cc1CN(Cc1cc(C(F)(F)F)cc(C(F)(F)F)c1)c1nnn(C)n1 [Compound 6, (3-{[(3,5-Bis-trifluoromethyl-benzyl)-(2-methyl-2H-tetrazol-5-yl)-amino]-methyl}-5-iodo-pyridin-2-yl)-cyclopentylmethyl-ethyl-amine] |
| 300 | CCN(CC1CCCC1)c1ncc(C)cc1CN(Cc1cc(C(F)(F)F)cc(C(F)(F)F)c1)c1nnn(C)n1 [Compound 5, (3-{[(3,5-Bis-trifluoromethyl-benzyl)-(2-methyl-2H-tetrazol-5-yl)-amino]-methyl}-5-methyl-pyridin-2-yl)-cyclopentylmethyl-ethyl-amine] |
